Data: patent US4483872A, “Non-classical topical treatment for glaucoma using n-substituted sulfonamides” (University of Iowa Research Foundation, priority 1983, dated 1984)

How the values were obtained:
[1] = tested on: eye of normal adult white rabbits; assay: IOP after topical drops of 1% solution, Examples 6 and 7; format: in vivo, rabbit; parameters: unit: mm Hg; conditions: 3 drops
Method: A 1% solution of 1-(N-hydroxy-N-methylsulfamido)-4-chlorobenzene and a 1% solution of 1-(N-hydroxy-N-methyl-sulfamido)-4-nitrobenzene were prepared for two separate experiments, examples 6 and 7 resepctively. The vehicle consisted of aqueous pH 7.2 phosphate buffer. One drop, followed by two drops each at one minute intervals, was applied to one eye of normal adult white rabbits. Six rabbits were used in example 6 and twelve rabbits in example 7. The treated eye was selected randomly, whereas, the fellow eye received placebo. The observer was masked. The intraocular pressure (IOP) was measured with a Digilab pneumotonometer, initially and every ten minutes for 180 minutes in each experiment following instillation of the anti-glaucoma agent. A drop of local anesthetic was applied to each eye just prior to making the measurement.

carbonic anhydrase = assay: in vitro carbonic anhydrase activity, simplified method of Maren; format: biochemical
Method: The procedure required the use of a specialized glass reaction vessel to which was added 0.4 ml phenol red indicator (0.00125%), 0.25 to 0.30 ml heparinized blood containing 2 enzyme units of carbonic anhydrase, 0.1 ml drug solution (0.01 to 100 mg/L) and 0.1 ml of 0.255 M carbonate buffer. […] Water was added to the reaction vessel which was kept in a water bath at 0±0.25° C. The reaction cell was constantly purged with CO2 at a rate of 200 to 250 ml/min. Each reagent was added at a specified time and in a specified order. […] The time required for the reaction begins with the addition of carbonate buffer and was completed with the indicator changed from red to yellow. […] Reaction time was the time for the uncatalyzed reaction time. The reaction times remain constant once equilibration has been attained. By varying the time before adding the carbonate buffer and then determining the reaction time, the equilibration time can be accurately determined. The reaction time was averaged over three determinations. A range of drug concentrations were reacted and the concentration of drug causing 50% inhibition of enzyme (I50) read from a plot of reaction time against drug concentration. (If two enzyme units are added, then the concentration of drug yielding a reaction time corresponding to the activity of one unit is taken as the I50). An enzyme unit (e.u.) was calculated from: [formula]

[2] = tested on: eye of normal adult white rabbits; assay: Salted rabbit test: intraocular pressure (IOP) after topical drops; format: in vivo
Method: In particular, an initial drop from the test formulation followed by two drops at one minute intervals are applid to one eye of each of six adult white rabbits that had been maintained on a diet containing 0.5% sodium. The treated eye was selected randomly, whereas, the fellow eye received placebo; the observer was masked. Results identified a small but significant reduction of intraocular pressure in the treated eye at 30, 60 and 120 minutes.
One drop, followed by two drops each at one minute intervals, was applied to one eye of normal adult white rabbits. Six rabbits were used in the experiment. The treated eye was selected randomly, whereas, the fellow eye received placebo. The observer was masked. The intraocular pressure (IOP) was measured with a Digilab Pneumotonometer, initially and every ten minutes for 120 minutes following instillation of the anti-glaucoma agent. A drop of local anesthetic was applied just prior to making the measurement.
IOP* Changes = (IOPDET - IOPCET) - (IOPDEO - IOPCEO)
IOPDET = measurement (mm Hg) of dosed eye at time t.
IOPDEO = measurement (mm Hg) of dosed eye at t = 0, but prior to
IOPDET = IOP measurement (mm Hg) of control (nondosed) eye at time t
IOPCEO = IOP measurement (mm Hg) of control eye at time t = 0
*Difference in IOP measurements (mm Hg) between both eyes just prior to
dosing at t = 0 (i.e., IOPDEO - IOPCEO).

With `CN(O)S(=O)(=O)c1ccc([N+](=O)[O-])cc1` [1-(N-hydroxy-N-methyl-sulfamido)-4-nitrobenzene] the “IOP changes, Ave. change” value ([1]; Example 7, 0 min) was 0.167, the “IOP changes, Ave. change” value ([1]; Example 7, 10 min) was 0.333 and the “IOP changes, Ave. change” value ([1]; Example 7, 20 min) was -0.333. For the same compound, the “IOP changes, Ave. change” value ([1]; Example 7, 30 min) was “-.667”, the “IOP changes, Ave. change” value ([1]; Example 7, 40 min, probability less than 0.05) was -1.67 and the “IOP changes, Ave. change” value ([1]; Example 7, 50 min, probability less than 0.025) was -1.83. For the same compound, the “IOP changes, Ave. change” value ([1]; Example 7, 60 min, probability less than 0.025 (footnote)) was 1.67, the “IOP changes, Ave. change” value ([1]; Example 7, 70 min, probability less than 0.025) was -2.0 and the “IOP changes, Ave. change” value ([1]; Example 7, 80 min, probability less than 0.05) was -1.167. For the same compound, the “IOP changes, Ave. change” value ([1]; Example 7, 90 min) was 0.2, the “IOP changes, Ave. change” value ([1]; Example 7, 100 min) was -0.5 and the “IOP changes, Ave. change” value ([1]; Example 7, 110 min) was -0.33. For the same compound, the “IOP changes, Ave. change” value ([1]; Example 7, 120 min) was -1.00.

For `CN(O)S(=O)(=O)c1ccc(Cl)cc1` [1-(N-hydroxy-N-methylsulfamido)-4-chlorobenzene], the “IOP changes, Ave. change” value ([1]; Example 6, 0 min) was 0.417, the “IOP changes, Ave. change” value ([1]; Example 6, 20 min) was 0.617 and the “IOP changes, Ave. change” value ([1]; Example 6, 40 min) was 1.00. The “IOP changes, Ave. change” value ([1]; Example 6, 60 min, probability less than 0.025) was -1.25, the “IOP changes, Ave. change” value ([1]; Example 6, 80 min) was 0.167 and the “IOP changes, Ave. change” value ([1]; Example 6, 100 min) was 0.667. For the same compound, the “IOP changes, Ave. change” value ([1]; Example 6, 120 min) was 0.333, the “IOP changes, Ave. change” value ([1]; Example 6, 140 min) was “-.333” and the “IOP changes, Ave. change” value ([1]; Example 6, 160 min) was -0.25. For the same compound, the “IOP changes, Ave. change” value ([1]; Example 6, 180 min) was -0.25.

In the case of `CNS(=O)(=O)c1nnc(NC(C)=O)s1` [methyl acetazolamide, N-methyl-2-acetylamino-1,3,4-thiadiazole-5-sulfonamide], the “averaged I50 (concentration of drug causing 50% inhibition of enzyme)” value (carbonic anhydrase; 2 enzyme units of carbonic anhydrase in heparinized blood, 0° C., averaged over three determinations) was 0.520 mg, the “in vitro activity” value (carbonic anhydrase; in vitro) was “inactive in vitro” and the “activity relative to acetazolamide (ratio of I50 values)” value (carbonic anhydrase; ratio 0.52/0.00914) was 1/60. For the same compound, the “IOP difference between both eyes, Av. Chg.” value ([2]; 0 min, just prior to dosing (baseline, IOPDEO - IOPCEO), six rabbits) was 1.83 mm Hg, the “lowering of IOP, statistical significance” value ([2]; 1% w/v suspension, 3 drops, all time intervals to 120 min) was “statistically significant at all time intervals” and the “reduction of intraocular pressure” value ([2]; after topical administration) was “able to reduce intraocular pressure”.
